target: T1, H^+ +K^+ ATPase (Sus scrofa, UniProt P19156); test: H+ +K+ ATPase inhibition (inorganic phosphoric acid release); type: biochemical; conditions: enzyme prepared from porcine stomach; 30 min with compound at room temperature, pH 6.1; then 30 min at 37° C., pH 7.4, 20 mM KCl
T1 construct: prepared from porcine stomach; from tissue; host or cells: porcine stomach
Procedure: H^+ +K^+ ATPase (adenosine triphosphatase) (amount of protein: 10 μg) prepared from porcine stomach was added to a Pipes-TRIS [i.e. 2-amino-2-(hydroxymethyl)-1,3-propanediol] buffer solution (pH 6.1) containing 2 mM of piperazine N,N'-bis(2-ethanesulfonic acid), and the mixture was let stand at room temperature. A test compound was dissolved in dimethyl formamide, and the mixture was added to said H^+ +K^+ ATPase buffer solution so that the final concentration should be 1% and let stand for reaction for 30 minutes at room temperature. Then a 75 mM Pipes-TRIS buffer (1 ml, pH 7.4) (containing 4 mM MgCl2, 4 mM Na2 ATP, and 20 mM KCl) and a 75 mM Pipes-TRIS buffer (1 ml, pH 7.4) (containing 4 mM MgCl2, and 4 mM Na2 ATP) were added to the solution individually to make two kinds of samples and these samples were presented for reaction for 30 minutes at 37° C. 40% Trichloroacetic acid (0.3 ml) was added to each sample to stop the reaction. The solution were subjected to centrifugal separation (3000 rpm) for 10 minutes, and the supernatant was taken off, then the formed inorganic phosphoric acid was measured by Fiske and Subbarow's method [J. Biol. Chem. vol. 66, 375 (1925)]. The value of deducting the amount of inorganic phosphoric acid taken from the Pipes-Tris buffer not containing 20 mM KCl from that taken from the Pipes-Tris buffer containing 20 mM KCl was calculated in terms of unit protein and unit hour to be defined as an activity index of enzyme. Inhibition level (%) in doses of administration was estimated by control values and activity indices of enzyme, and from the obtained inhibition level (%), IC50 (dose of administration of compounds to inhibit in 50%) was obtained.

T1 sequence (P19156 2-1034 limits assumed): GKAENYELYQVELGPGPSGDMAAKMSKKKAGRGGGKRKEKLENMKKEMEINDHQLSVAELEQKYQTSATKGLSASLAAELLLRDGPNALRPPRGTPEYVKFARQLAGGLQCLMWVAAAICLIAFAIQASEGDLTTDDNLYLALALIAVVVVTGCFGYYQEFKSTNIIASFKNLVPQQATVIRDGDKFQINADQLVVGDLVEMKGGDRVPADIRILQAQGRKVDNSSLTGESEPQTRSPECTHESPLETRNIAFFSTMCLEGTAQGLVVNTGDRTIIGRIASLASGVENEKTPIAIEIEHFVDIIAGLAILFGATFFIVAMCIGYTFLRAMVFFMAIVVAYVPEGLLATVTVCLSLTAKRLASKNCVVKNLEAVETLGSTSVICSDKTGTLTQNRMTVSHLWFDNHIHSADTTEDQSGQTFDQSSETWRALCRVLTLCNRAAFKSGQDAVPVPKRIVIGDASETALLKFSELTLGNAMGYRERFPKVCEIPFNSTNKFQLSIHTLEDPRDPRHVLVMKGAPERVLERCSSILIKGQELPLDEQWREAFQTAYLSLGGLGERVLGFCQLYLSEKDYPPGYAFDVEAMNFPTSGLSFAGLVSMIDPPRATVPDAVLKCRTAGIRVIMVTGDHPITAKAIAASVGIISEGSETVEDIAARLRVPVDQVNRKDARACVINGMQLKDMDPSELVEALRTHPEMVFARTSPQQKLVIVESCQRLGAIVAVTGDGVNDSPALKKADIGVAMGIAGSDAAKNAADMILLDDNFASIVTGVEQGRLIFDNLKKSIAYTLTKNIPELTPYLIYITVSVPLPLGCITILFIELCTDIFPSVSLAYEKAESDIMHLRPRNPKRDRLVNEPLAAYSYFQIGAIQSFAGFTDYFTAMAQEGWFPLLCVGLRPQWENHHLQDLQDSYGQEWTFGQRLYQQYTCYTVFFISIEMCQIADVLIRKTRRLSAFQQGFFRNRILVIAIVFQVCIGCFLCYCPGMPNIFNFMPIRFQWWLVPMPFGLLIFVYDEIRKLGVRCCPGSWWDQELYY
T1 sequence (P18434 whole entry partner): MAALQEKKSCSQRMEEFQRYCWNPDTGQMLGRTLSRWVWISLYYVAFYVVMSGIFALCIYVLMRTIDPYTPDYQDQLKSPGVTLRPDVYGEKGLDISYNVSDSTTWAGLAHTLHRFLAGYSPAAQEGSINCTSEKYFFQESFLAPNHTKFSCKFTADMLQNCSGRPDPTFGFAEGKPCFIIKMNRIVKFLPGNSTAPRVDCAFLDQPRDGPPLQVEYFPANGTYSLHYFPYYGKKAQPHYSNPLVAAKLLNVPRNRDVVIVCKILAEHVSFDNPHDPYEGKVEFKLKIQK

| Compound | IC50 |
| --- | --- |
| C=C1CCN(CC)c2c(C[S+]([O-])c3nc4ccccc4[nH]3)cccc21 (stereo not drawn) [Test compound No. 52, 1-ethyl-8-(2-benzimidazolyl)sulfinylmethyl-4-methylene-1,2,3,4-tetrahydroquinoline] | 3.9 µM |
| CCOc1cc2[nH]c([S+]([O-])Cc3cccc4c3N(CC)CCC4)nc2cc1F (stereo not drawn) [Test compound No. 7, 1-ethyl-8-(5-ethoxy-6-fluoro-2-benzimidazolyl)sulfinylmethyl-1,2,3,4-tetrahydroquinoline] | 1.6 µM |
| CCN1CCCc2cccc(C[S+]([O-])c3nc4ccc(F)cc4[nH]3)c21 (stereo not drawn) [Test compound No. 4, 1-ethyl-8-(5-fluoro-2-benzimidazolyl)sulfinylmethyl-1,2,3,4-tetrahydroquinoline] | 1 µM |
| C=CCN(C)C1CCNc2c(C[S+]([O-])c3nc4cc(F)c(OC)cc4[nH]3)cccc21 (stereo not drawn) [Test compound No. 71, 8-(5-fluoro-6-methoxy-2-benzimidazolyl)sulfinylmethyl-4-(N-allyl-N-methyl)amino-1,2,3,4-tetrahydroquinoline] | 5.7 µM |
| CN1CCC(=O)c2cccc(C[S+]([O-])c3nc4ccccc4[nH]3)c21 (stereo not drawn) [Test compound No. 43, 1-methyl-8-(2-benzimidazolyl)sulfinylmethyl-4-oxo-1,2,3,4-tetrahydroquinoline] | 6.7 µM |
| CCC1(O)CCN(C)c2c(C[S+]([O-])c3nc4ccccc4[nH]3)cccc21 (stereo not drawn) [Test compound No. 46, 1-methyl-8-(2-benzimidazolyl)sulfinylmethyl-4-ethyl-4-hydroxy-1,2,3,4-tetrahydroquinoline] | 1.8 µM |
| CCN1CCCc2cc(Br)cc(C[S+]([O-])c3nc4ccccc4[nH]3)c21 (stereo not drawn) [Test compound No. 31, 1-ethyl-6-bromo-8-(2-benzimidazolyl)sulfinylmethyl-1,2,3,4-tetrahydroquinoline] | 6.4 µM |
| Cc1ccc2nc([S+]([O-])Cc3cccc4c3N(C)CCC4)[nH]c2c1 (stereo not drawn) [Test compound No. 17, 1-methyl-8-(5-methyl-2-benzimidazolyl)sulfinylmethyl-1,2,3,4-tetrahydroquinoline] | 0.53 µM |
| CCN1CC=C(C(F)(F)F)c2cccc(C[S+]([O-])c3nc4ccccc4[nH]3)c21 (stereo not drawn) [Test compound No. 72, 1-ethyl-8-(2-benzimidazolyl)sulfinylmethyl-4-trifluoromethyl-1,2-dihydroquinoline] | 3.3 µM |
| C=CCN(Cc1ccc(OC)cc1)C1CCN(CC)c2c(C[S+]([O-])c3nc4cc(F)c(OC)cc4[nH]3)cccc21 (stereo not drawn) [Test compound No. 70, 1-ethyl-8-(5-fluoro-6-methoxy-2-benzimidazolyl)sulfinylmethyl-4-[N-allyl-N-(4-methoxybenzyl)]amino1,2,3,4-tetrahydroquinoline] | 3.8 µM |

These reach a lower IC50. Values come first.

| IC50 | Compound |
| --- | --- |
| 0.5 µM | CCN1CCCc2cccc(C[S+]([O-])c3nc4cccc(C)c4[nH]3)c21 (stereo not drawn) [Test compound No. 11, 1-ethyl-8-(4-methyl-2-benzimidazolyl)sulfinylmethyl-1,2,3,4-tetrahydroquinoline] |
| 0.33 µM | COc1cc2nc([S+]([O-])Cc3cccc4c3N(C)CCC4)[nH]c2cc1F (stereo not drawn) [Test compound No. 20, 1-methyl-8-(5-fluoro-6-methoxy-2-benzimidazolyl)sulfinylmethyl-1,2,3,4-tetrahydroquinoline] |
| 0.25 µM | [O-][S+](Cc1cccc2c1N(CC1CC1)CCC2)c1nc2ccccc2[nH]1 (stereo not drawn) [Test compound No. 35, 1-cyclopropylmethyl-8-(2-benzimidazolyl)sulfinylmethyl-1,2,3,4-tetrahydroquinoline] |
| 0.23 µM | CCN1CC=C(C)c2cccc(C[S+]([O-])c3nc4ccccc4[nH]3)c21 (stereo not drawn) [Test compound No. 41, 1-ethyl-8-(2-benzimidazolyl)sulfinylmethyl-4-methyl-1,2-dihydroquinoline 1/2-hydrate] |
| 0.18 µM | CCN1CCCc2cccc(C[S+]([O-])c3nc4ccc(C)cc4[nH]3)c21 (stereo not drawn) [Test compound No. 2, 1-ethyl-8-(5-methyl-2-benzimidazolyl)sulfinylmethyl-1,2,3,4-tetrahydroquinoline] |

From patent US4963566A, “Benzimidazolyl-sulfinyl-tetrahydroquinolines” (Otsuka Pharmaceutical Co., Ltd., priority 1986, dated 1990)
